In patent US20250099406A1, “TREATING CANCERS WITH COMBINATIONS OF ACYLFULVENES WITH IBRUTINIB AND/OR BORTEZOMIB” (LANTERN PHARMA INC., priority 2022, published 2025):
“Also recorded” adds a separate entry of the source.

Test system: JeKo-1 MCL xenograft tumors
Assay: JeKo-1 MCL cell line-derived xenograft mouse study
Type: in vivo, NOD.Scid mice
Conditions: for tumor response to single-agent treatment: n=8/arm, low dose LP-284 (2 mg/kg i.v.), bortezomib 1 mg/kg i.p. or ibrutinib 50 mg/kg p.o.; for tumor volume: at day 17, on bortezomib (1 mg/kg i.p.) or ibrutinib (50 mg/kg p.o.), tumors refractory; for tumor size: day 16, treated by bortezomib (1 mg/kg, i.p.) or ibrutinib (50 mg/kg, p.o.)
Experimental: The JeKo-1 MCL cell line-derived xenograft mice (n=8/arm) were treated with vehicle, LP-284 (2 mg/kg or 4 mg/kg, i.v.), bortezomib (1 mg/kg, i.p.), or ibrutinib (50 mg/kg, p.o.) at days indicated by arrows in the graph. Tumor volumes were measured every 2 to 4 days after treatment initiation.
The two drugs were replaced with one cycle of 4 mg/kg LP-284 or the vehicle (saline).
Each treatment arm was then further split into two sub-arms (n=4/sub-arm), one of which was treated by vehicle whereas the other was treated by 4 mg/kg LP-284 (i.v.), as indicated by arrows in the graph.
Five-week old NOD.Scid mice were procured through Envigo (Item 17003F). Mice were fed Teklad irradiated (sterilized) mouse diet and bedded with Teklad irradiated (sterilized) corncob bedding from Envigo (Indianapolis, IN). Mice were housed in Optimice carousel sterile quarters with filtered air supply in disposable cages from Animal Care Systems, Inc. (Centennial, CO). A total of 1×10^7 cells JeKo-1 cells were injected subcutaneously into the right hind flank of each animal using a […] needle. Vehicle (saline), 4 mg/kg or 2 mg/kg LP-284 was administered as an intravenous injection on day 1, 3, 5, 7, 9, 17, 19, 21, 23, 25. 50 mg/kg ibrutinib was administered orally daily on day 1-16. 1 mg/kg bortezomib administered as an intraperitoneal injection on day 1, 4, 7, 10. The ibrutinib and bortezomib arms were further treated with vehicle or 4 mg/kg LP-284 intravenously on day 17, 19, 21, 23, 25. Tumors were measured in two dimensions using calipers, and volume was calculated using the formula:
TumorVolume (mm^3)=w2×l/2
where w=width and l=length, in mm, of the tumor. For this study the calipers were aligned to the tumor edges (the tumors were not squeezed with the caliper).

Compound	survival versus vehicle (Kaplan-Meier) (bortezomib or ibrutinib pre-treated and refractory xenograft mice switched to 4 mg/kg LP-284 i.v., p<0.001)	tumor response to single-agent treatment	tumor response after switching bortezomib- or ibrutinib-refractory mice to LP-284 (one cycle of 4 mg/kg LP-284 i.v. on day 17, 19, 21, 23, 25, tumors ~2000 mm3, n=4/sub-arm, 4 mg/kg)	tumor volume	tumor size	tumor response to single-agent treatment (listed as Bortezomib)	tumor response to single-agent treatment (listed as Ibrutinib)
CC1=C(CN(O)C(N)=O)C2=C(C)C3(CC3)[C@](C)(O)C(=O)C2=C1 [LP-284, (+)-hydroxyureamethyl acylfulvene]	approximately two times longer; also recorded: prolonged survival	resulted in refractory cancer after initially controlling cell growth in tumors	almost completely eliminating; also recorded: near complete tumor regression; also recorded: diminished rapidly	–	–	–	–
CC(C)C[C@H](NC(=O)[C@H](Cc1ccccc1)NC(=O)c1cnccn1)B(O)O [bortezomib, [(1R)-3-methyl-1-({(2S)-3-phenyl-2-[(pyrazin-2-ylcarbonyl)amino]propanoyl}amino)butyl]boronic acid]	–	refractory	–	~2000 mm3	~2000 mm3	resulted in refractory cancer after initially controlling cell growth in tumors; also recorded: become refractory and relapse	–
C=CC(=O)N1CCC[C@@H](n2nc(-c3ccc(Oc4ccccc4)cc3)c3c(N)ncnc32)C1 [ibrutinib, (R)-1-(3-(4-amino-3-(4-phenoxyphenyl)-1H-pyrazolo[3,4-d]pyrimidin-1-yl)piperidin-1-yl) prop-2-en-1-one]	–	refractory	–	~2000 mm3	~2000 mm3	–	resulted in refractory cancer after initially controlling cell growth in tumors; also recorded: become refractory and relapse
